Reference: US20050009886A1, “1,4-Dihydropyridine derivative with a guaiacoxypropanolamine and/or phenoxypropanolamine moiety” (priority 1998, published 2005)

What was measured:
β-adrenoreceptor (β1) [1] = target: T1, β-adrenoreceptor (β1) (Rattus norvegicus, UniProt P18090); assay: Isolated right atrium, L-isoproterenol-induced heart rate increase (pA2); design: species or system Wistar rat; conditions: for β1 Value of pA2 Right Atrium: vs L-isoproterenol, Schild plot
T1 construct: The right and left atria were then separated; from tissue; host or cells: isolated rat right atrium (spontaneously beating) and left atrium (electrically paced)
Protocol: The right and left atria were then separated. The spontaneously-beating right atria was clipped on both end by heart shaped clips, where one end was fixed at the bottom of 10 ml of tissue bath made of physiological saline solution, and temperature maintained at 37° C. The other end of the atria was connected to a force transducer, and isometric contractions and beating rate of the right atria were recorded by COULBOURN AT-High-Speed VideoFigure. After the samples were given 250 mg of contractions and reach equilibrium the following experiments were carried out: • (a) β-adrenoceptor blocking action
Cumulative administration interval was when the previous concentration reached its greatest effect, the next concentration would be immediately given.
The equation is as follows: pA2=−Log KB Log(DRADJ−1)=nlog[B]−LogKB [formula]
[B] Test compound concentration in moles • KB: equilibrium dissociation constant • n: value of slope DR: test EC50 divided by control EC50 • CF: EC50 of second or third control groups divided by EC50 of first control group (c) Effect of Compound on the Increase of Spontaneous Beating in Right Atrium Caused by CaCl2

Calcium = Calcium antagonism (pKCa^−1, Table 2)
[2] = Heart rate and blood pressure in living rat; format: in vivo, Wistar rats
Excerpt: Male Wistar rats, weighing 200˜300 g were abdominal anaesthetized with pentobarbital sodium. Tracheal was cannulated to maintain normal respiration. Polyethylene tube was inserted into the left femoral vein to facilitate drug administration. A 3-way stopcock was used, with one end connected to a syringe for drug injection, while the other end was connected to the syringe filled with physiological saline. The latter was used to prevent residual drugs in the polyethylene tube after injection, which would affect experimental accuracy.
The right femoral artery was also inserted with polyethylene, and a 3-way stopcock was used too, where one end was connected to heparin solution to prevent embolism. The other end was connected to a Disposable Diaphragm Dome, TA1019, and linked to a transducer. Through an amplifier, a recorder recorded the overall and average arterial pressure; heart rate to evaluate the effect of drug on blood pressure and heart rate.

right atrium = conditions: 10^−7, 10^−6, and 10^−5M; CaCl2 3.0, 6.0, 9.0 mM
Protocol: The right atrium of the rats was allowed to equilibrate in Kreb's solution for at least 60 minutes. When the spontaneous beating rate had reached a certain stability, CaCl2 of different concentrations (3.0, 6.0, and 9.0 mM) were cumulatively administered, and the changes in the spontaneous beating of right atrium were observed. […] 30 minutes later, different concentrations (3.0, 6.0, and 9.0 mM) were cumulatively administered, and the changes in the spontaneous beating of right atrium were observed again.

[3] = target: cerebral cortex calcium ion receptors; conditions: 25° C., 60 minutes
lung β 2-receptor = target: T2, lung β 2-receptor (Rattus norvegicus, UniProt P10608); format: binding, Wistar rat; conditions: 25° C., 60 minutes
T2 construct: The heart and lung of rat were removed and placed in cold Tris buffer; from tissue; host or cells: membrane preparation from rat lung

β-adrenoreceptor (β1) [4] = target: T1, β-adrenoreceptor (β1); assay: Isolated left atrium, L-isoproterenol-induced contractility increase (pA2); design: species or system Wistar rat; conditions: for β1 Value of pA2 Left Atrium: vs L-isoproterenol, electrically stimulated
Protocol: The inspontaneously-beating left atrial tissue was obtained from rat's isolated right atrial tissue experiments. […] The contraction rate was 1 Hz and the resting tension 0.5 gm. After 60 minutes of equilibration, the following experiments were performed:
(a) Completion of cumulative concentration-response curve: similar to experimental method on isolated right atrium;
(b) Calculation of pA2 value: similar to calculation method on isolated right atrium.

A7r5 cells = conditions: 10^−8, 10^−7, 10^−6M for 5 minutes
β2 = target: T3, β2 (Cavia porcellus, UniProt Q8K4Z4); assay: Guinea pig's isolated tracheal, L-isoproterenol relaxation of carbachol contraction (pA2); conditions: for β2 Value of pA2 Tracheal: vs L-isoproterenol, carbachol 10^−6 M contraction
T3 construct: a portion of tracheal approximately 4 cm long was removed; from tissue; host or cells: isolated trachea of reserpine-pretreated guinea pigs
Protocol: Guinea pigs of weight between 300˜500 gm were used. […] After the guinea pigs were sacrificed, a slit was made along the neck, and a portion of tracheal approximately 4 cm long was removed. […] The two ends of the tracheal were clamped with frog-heart shaped clamps, one end was fixed at the bottom of tissue bath filled with 20 ml of Kreb's solution, maintained at 37° C., while the other end was connected to a force transducer. Through a COULBOURN AT-High-Speed Videograph, long isometric contractions were recorded. After the sample was given 1.5 gm of tension and equilibrated, the following experiments were performed:
Then the tracheal was repeatedly washed with Kreb's solution for 20 minutes and 10−6 M of carbochol was added to cause contraction in the guinea pig's tracheal. […] This is the test group.
(b) Calculation of pA2: similar to the calculation method for isolated right atrium experiment.

atrial β 1-receptor = target: T4, atrial β 1-receptor (Rattus norvegicus, UniProt P18090); format: binding, Wistar rat; conditions: 25° C., 60 minutes
T4 construct: The heart and lung of rat were removed and placed in cold Tris buffer; from tissue; host or cells: membrane preparation from rat atria

isolated atria = assay: Direct effect (intrinsic sympathomimetic activity) on reserpine pretreated isolated atria; design: species or system Wistar rat
Protocol: Wistar rats of weight between 200˜300 gm were used. 18˜24 hours before the experiment, 5 mg/kg of reserpine was injected via abdominal cavity to remove all endogenous catecholamines. Prior experiment, Wistar rats were sacrificed, the heart was immediately removed and placed in Kreb's solution aerated with air mixture and maintained at room temperature. The right and left atria were carefully separated.

[5] = 1 mg/kg via femoral vein, anaesthetized rat
[6] = intravenous 0.1-2.0 mg/kg, normotensive rats

T1 sequence (P18090 whole entry): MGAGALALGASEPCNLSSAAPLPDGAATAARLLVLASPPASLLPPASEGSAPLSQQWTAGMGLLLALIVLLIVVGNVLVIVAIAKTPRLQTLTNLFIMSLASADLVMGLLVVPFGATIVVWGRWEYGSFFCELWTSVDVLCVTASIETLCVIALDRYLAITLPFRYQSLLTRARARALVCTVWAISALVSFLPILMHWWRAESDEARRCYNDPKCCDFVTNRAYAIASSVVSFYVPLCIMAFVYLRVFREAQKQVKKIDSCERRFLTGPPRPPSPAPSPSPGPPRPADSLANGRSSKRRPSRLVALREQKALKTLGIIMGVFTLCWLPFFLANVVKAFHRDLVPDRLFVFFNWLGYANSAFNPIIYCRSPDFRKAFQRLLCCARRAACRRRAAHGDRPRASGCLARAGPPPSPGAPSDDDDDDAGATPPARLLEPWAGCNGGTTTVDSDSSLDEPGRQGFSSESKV
T3 sequence (Q8K4Z4 whole entry): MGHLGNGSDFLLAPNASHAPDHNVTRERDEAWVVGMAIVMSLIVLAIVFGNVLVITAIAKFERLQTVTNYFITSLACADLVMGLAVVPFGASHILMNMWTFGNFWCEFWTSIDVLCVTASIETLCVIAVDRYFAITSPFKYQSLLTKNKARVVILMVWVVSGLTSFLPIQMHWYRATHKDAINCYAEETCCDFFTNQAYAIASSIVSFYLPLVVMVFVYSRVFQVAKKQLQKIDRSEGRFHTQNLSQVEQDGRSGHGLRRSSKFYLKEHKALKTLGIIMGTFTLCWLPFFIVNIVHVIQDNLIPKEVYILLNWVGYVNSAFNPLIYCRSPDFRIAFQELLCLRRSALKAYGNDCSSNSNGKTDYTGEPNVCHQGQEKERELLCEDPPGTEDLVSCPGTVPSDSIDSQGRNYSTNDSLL
T4 sequence (P18090 whole entry): as the sequence (P18090 whole entry) above
T2 sequence (P10608 whole entry): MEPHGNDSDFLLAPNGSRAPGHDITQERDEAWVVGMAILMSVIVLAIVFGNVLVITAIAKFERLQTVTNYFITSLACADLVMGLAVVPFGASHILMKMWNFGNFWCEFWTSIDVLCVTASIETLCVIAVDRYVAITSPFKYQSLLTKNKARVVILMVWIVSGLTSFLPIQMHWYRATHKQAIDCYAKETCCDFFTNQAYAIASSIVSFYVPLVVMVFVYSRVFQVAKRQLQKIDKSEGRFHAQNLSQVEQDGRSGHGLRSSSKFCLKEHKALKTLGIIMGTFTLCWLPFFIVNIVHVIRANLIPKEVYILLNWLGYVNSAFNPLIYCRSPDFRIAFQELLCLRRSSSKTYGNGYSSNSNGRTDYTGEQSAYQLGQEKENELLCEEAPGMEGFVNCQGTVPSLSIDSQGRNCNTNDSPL

COC(=O)C1=C(C)NC(C)=C(C(=O)OC)C1c1ccc(OCC(O)CNC(C)(C)C)c(OC)c1 (stereo not drawn) [Compound 1]
Ratio of β1 and Calcium Antagonism (β-adrenoreceptor (β1) [1]): 0.12 | effect on right atrium relative to tracheal (selectivity ratio of β1 type adrenoceptor) (β-adrenoreceptor (β1) [1]; from average pA2 difference between right atrium and tracheal): 1.32 × | β1/β2 (β-adrenoreceptor (β1) [1]; from pA2 difference right atrium vs tracheal): 1.32 | block of heart rate increment effect of L-isoproterenol (β-adrenoreceptor (β1) [1]; right atrium, 10^−6, 10^−5, and 10^−6 M as printed): could competitively block | β1 Right Atrium (Slope) (β-adrenoreceptor (β1) [1]; slope of Schild regression): (0.94 ± 0.18) | β1 Value of pA2 Right Atrium (β-adrenoreceptor (β1) [1]): 7.21 ± 0.32 | β1 Value of pA2 Right Atrium (β-adrenoreceptor (β1) [1]; listed as compound 1): 7.21±0.32 | selectivity on the type of β-adrenoceptor (β-adrenoreceptor (β1) [1]; β1:β2): non-selective | Calcium Antagonism PKCa^−1 (Calcium): 7.82 ± 0.49 | Lowering of Blood Pressure [2, 5]: 70 ± 3 mmHg | Reduction of Heart Rate [2, 5]: 30 ± 2 beats/min | effect on heart rate ([2]; intravenous 0.5 mg/kg): a decrease in heart rate | duration of blood pressure lowering effect [2, 6]: approximately 1 hour | effect on blood pressure and heart rate [2, 6]: continuous dose-dependent blood pressure lowering effect without increasing heart rate | effect on increased atrial beating rate induced by CaCl2 (right atrium): blocked | [^3H]nitrendipine Ca^2+ PKi [3]: 7.86 ± 0.38 | [^3H] CGP-12177 (β2) pKi (lung β 2-receptor): 6.20 ± 0.55 | block of heart contractility increment effect of L-isoproterenol (β-adrenoreceptor (β1) [4]; left atrium, 10^−6, 10^−5, and 10^−6 M as printed): could competitively block | β1 Left Atrium (Slope) (β-adrenoreceptor (β1) [4]; slope of Schild regression): (0.85 ± 0.02) | β1 Value of pA2 Left Atrium (β-adrenoreceptor (β1) [4]): 6.91 ± 0.26 | β1 Value of pA2 Left Atrium (β-adrenoreceptor (β1) [4]; listed as compound 1): 6.91±0.26 | calcium ion influx effect of BayK8644 (A7r5 cells; 10 μM BayK8644): significantly blocked | calcium ion influx effect of KCl (A7r5 cells; 50 mM KCl): significantly blocked | block of the tracheal effect of L-isoproterenol (β2; 10^−6, 10^−5, and 10^−6 M as printed): could competitively block | β2 Tracheal (slope) (β2; slope of Schild regression): (0.84 ± 0.09) | β2 Value of pA2 Tracheal (β2): 7.09 ± 0.54 | β2 Value of pA2 Tracheal (β2; listed as compound 1): 7.09±0.54 | [^3H] CGP-12177 (β1) pKi (atrial β 1-receptor): 6.61 ± 0.46 | direct effect on right atrium beating rate and left atrium isometric contractions (isolated atria; cumulative administration, reserpine pretreated): could not increase the beating rate and isometric contractions | concentration with blocking effect on beating rate and isometric contractions (isolated atria; reserpine pretreated atria): ≥ 10^−5 M
